{"source": "paper PMC5974752", "about": "“Bax/Tubulin/Epithelial-Mesenchymal Pathways Determine the Efficacy of Silybin Analog HM015k in Colorectal Cancer Cell Growth and Metastasis” (Frontiers in Pharmacology, 2018)", "format_in_all_cases": "cell-based, human", "key": {"PARP": {"tested_on": "PARP", "experiment": "Western blot in HCT116 cells (nuclear fraction)", "conditions": "4 μM, vs control", "experimental": "HCT116 cells were lysed to obtain cytoplasmic and nuclear protein fractions, according to the protocol used in previous publications (Alhadidi and Shah, [2017]). Briefly, the cells were seeded in and incubated with 15k for overnight at 4μM. The cells were washed using ice-cold PBS and scraped using a cell scraper and collected in 15ml tubes. The cells were centrifuged and the PBS was discarded and replaced with 400 μl of buffer A (10 mM HEPES, pH 7.9, 0.1 mM EDTA, 0.1 mM EGTA, 10 mM KCl, 1 mM dithiothreitol, and 0.5 mM phenylmethylsulfonyl fluoride) in each tube. The cells were allowed to swell under in the buffer for 15 min on ice. Subsequently, 0.1% Nonidet P-40 was added to each suspension for 1 min to disturb the plasma membrane. The nuclei were precipitated by centrifugation at 13,000 rpm for 1 min at 4°C. The cytoplasmic proteins were collected in the supernatant and stored at −80°C. Two hundred μl of Buffer B (20 mM HEPES, pH 7.9, 1 mM EDTA, 1 mM EGTA, 400 mM NaCl, 1 mM dithiothreitol, and 1 mM phenylmethylsulfonyl fluoride) was added to the pellets and left for 30 min on ice with periodic mixing. […] The bicinchoninic acid (BCA) quantification assay was used to determine the concentration of protein in the cell extracts. […] Finally, proteins were quantified using the image J software. Data were calculated as ratios to β-actin."}, "LOVO cells": {"tested_on": "LOVO cells", "experiment": "Transwell migration assay", "conditions": "2 and 4 μM, 24 h, vs vehicle", "experimental": "The effect of compound 15k on the invasiveness of LOVO was tested using 24 trans-well inserts with an […]. The addition of the insert to the well forms two chambers (upper and lower), where the upper chamber was used to grow the cells on the porous membrane. The lower chamber was filled with 600 μl of cell-free DMEM medium. A 200 μl of cell suspension was added to each insert and allowed to attach for 1 h. The test compound was added in different concentrations and incubated with the cells for 24 h. […] Finally, the remaining migrated cells were fixed by methanol and dyed with 0.1% crystal violet dye and observed with an EVOS microscope. The number of migrated cells was counted and compared between the treated and control cells."}, "HCT116 cells [1]": {"tested_on": "HCT116 cells", "experiment": "Hoechst staining of nuclear condensation", "conditions": "2 or 4 μM, overnight, vs vehicle", "experimental": "Nuclear condensation was detected using Hoechst 33258 DNA dye. HCT116 cells were seeded at 1 × 10^5 cells/well in 6-well plates and incubated overnight at 37°C. The following day, cells were exposed to 15k or 15j (0, 2, and 4 μM) and further incubated overnight at 37°C. The cells were fixed and stained with Hoechst 33258 for at least 30 min. An EVOS digital microscope was used to detect the stained nucleus fluorescence at wavelengths of 460–490 nm."}, "HCT116": {"tested_on": "HCT116", "experiment": "Cell cycle analysis (PI, flow cytometry)", "conditions": "0, 2 or 4 μM, 12 h, data not shown", "experimental": "Cell cycle analysis was performed as described previously (Pozarowski and Darzynkiewicz, [2004]). Briefly, a 6 well plate was used for the seeding of HCT116 at 1 × 10^6 cells/well. The next day, 15j and 15k (0, 2, or 4 μM) were added and incubated with the seeded cells. After 12 h, the cells were trypsinzed with 0.25% trypsin, 2.21 mM EDTA, 1X, washed, counted and resuspended in 0.5 ml of ice cold PBS. PI stain was added to each suspension for at least 15 min to stain the DNA. The cell cycle analysis and cell distribution for each phase was measured using a BD Accuri™ C6 flow cytometer (BD Biosciences, Becton-Dickinson, San Jose, CA, USA) and analyzed using FCS express 5 plus De Novo software (Glendale, CA, USA)."}, "HCT116 cells [2]": {"tested_on": "HCT116 cells", "experiment": "MitoTracker Red / Alexa Fluor 488 annexin V flow cytometry", "conditions": "overnight", "experimental": "The mitochondrial membrane potential and the induction of apoptosis were analyzed in HCT116 cells using the MitoTracker Red and Alexa Fluor 488 annexin V kits for flow cytometry as previously described (Karthikeyan et al., [2015]). Six well plates were used for seeding of cells, followed by incubation with 15j or 15k (0, 1, 2, and 4μM) for overnight. Subsequently, the cells were harvested, counted and 4 μl of a 10μM working solution of MitoTracker Red was added to each 1 ml cell suspension, followed by 30 min of incubation at 37°C with 5% CO2. The cells were resuspended in 100 μl of annexin binding buffer and 5 μl of Alexa Fluor 488 annexin V was added to the suspension and incubated for 15 min. Finally, 400 μl of annexin-binding buffer was added and the stained cells were detected by flow cytometry. The fluorescence emission at 530 and 585 nm was measured using a BD Accuri™ C6 flow cytometer and analyzed using FCS express 5 plus De Novo software."}, "α-tubulin": {"tested_on": "α-tubulin", "experiment": "Immunofluorescence staining in HCT116 cells", "conditions": "2 or 4 μM, overnight, p < 0.001 vs control", "experimental": "(§1) HCT116 cells were used to ascertain the action of compound 15k on α-tubulin, E-cadherin and β-catenin. The cells were seeded on to culture glass covers inserted in 6 well plates. The compound was added at 0, 2, and 4μM and incubated with the cells overnight at 37°C. Paraformaldehyde (4%) was used for cell fixation, followed by permiabilization with 0.3% triton 100× in PBS for 25 min. The cells were blocked with 3% BSA in PBS for 30 min. The α-tubulin, E-cadherin, or β-catenin rabbit antibodies in the correct dilution were added, followed by fluorescent anti-rabbit secondary antibody in the same manner. The nuclei were stained with the nuclear dye, DAPI, for 15 min. The EVOS cell imaging system was used to detect the fluorescence from each slide."}, "E-cadherin": {"tested_on": "E-cadherin", "experiment": "Immunofluorescence staining in HCT116 cells", "conditions": "2 μM p < 0.05, 4 μM p < 0.001, 24 h", "experimental": "as §1"}, "β-catenin": {"tested_on": "β-catenin", "experiment": "Immunofluorescence staining in HCT116 cells", "conditions": "2 and 4 μM, p < 0.01 vs vehicle", "experimental": "as §1"}}, "data": [{"smiles": "O=C(/C=C/c1cccc(OCc2ccccc2)c1)c1ccc(O)cc1", "note": "[Compound 15k]", "values": [{"measurement": "total PARP", "setting": "PARP", "result": "significantly reduced"}, {"measurement": "number of cells migrated through transwell", "setting": "LOVO cells", "result": "significantly decreased the number of LOVO cells that migrated"}, {"measurement": "nuclear condensation / fragmentation", "setting": "HCT116 cells [1]", "result": "significant increase in blue fluorescence, as well as highly condensed, fragmented nuclei chromatin"}, {"measurement": "effect on the cell cycle", "setting": "HCT116", "result": "significant concentration-dependent increase in the number of cells in the G2 and S phases"}, {"measurement": "cells undergoing apoptosis, quadrant II (Q2)", "setting": "HCT116 cells [2]; 2 μM, vehicle 2.83%", "result": 47, "unit": "%"}, {"measurement": "viability at 2 µM", "setting": "HCT116 cells [2]; Homo sapiens, HCT-116, 2 μM, vehicle 90.66%, read-out: viable cells in quadrant I (Q1)", "result": 35.8, "unit": "%"}, {"measurement": "viability at 4 µM", "setting": "HCT116 cells [2]; Homo sapiens, HCT-116, 4 μM, vehicle 90.66%, read-out: viable cells in quadrant I (Q1)", "result": 36, "unit": "%"}, {"measurement": "α-tubulin green fluorescence", "setting": "α-tubulin", "result": "significant reduction"}, {"measurement": "E-cadherin expression (immunostaining)", "setting": "E-cadherin", "result": "significantly increased"}, {"measurement": "level of β-catenin available for nuclear translocation (immunostaining)", "setting": "β-catenin", "result": "significant decrease"}]}]}
